Values quoted from earlier work, collected in patent US20050095286A1, “Extended release compositions” (Fabre Kramer Pharmaceuticals, Inc., priority 2003, published 2005).

Assays:
[1] = target: D2-receptor binding sites (Homo sapiens, UniProt P14416); conditions: background statement, U.S. Pat. No. 5,010,078
[2] = target: T1, 5-HT1A receptor binding sites (Homo sapiens, UniProt P08908); conditions: background statement, U.S. Pat. No. 5,010,078
T1 sequence (P08908 1-422): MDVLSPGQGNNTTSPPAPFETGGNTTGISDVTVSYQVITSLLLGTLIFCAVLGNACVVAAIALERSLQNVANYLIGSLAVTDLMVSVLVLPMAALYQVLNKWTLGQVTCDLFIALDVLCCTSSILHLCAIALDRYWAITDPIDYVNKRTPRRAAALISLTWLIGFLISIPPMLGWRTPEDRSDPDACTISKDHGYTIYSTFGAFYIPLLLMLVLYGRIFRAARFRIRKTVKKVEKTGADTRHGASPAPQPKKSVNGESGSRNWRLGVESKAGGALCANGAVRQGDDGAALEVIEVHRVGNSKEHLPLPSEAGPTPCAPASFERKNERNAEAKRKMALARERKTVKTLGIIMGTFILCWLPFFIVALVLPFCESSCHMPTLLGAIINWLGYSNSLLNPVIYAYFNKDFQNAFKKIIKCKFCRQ

[3] = background statement
5HT1a-receptors = target: T2, 5HT1a-receptors (Homo sapiens, UniProt P08908); conditions: background statement
T2 sequence (P08908 1-422): T1 sequence (P08908 1-422)

D2-receptor binding sites, sequence (P14416 whole entry): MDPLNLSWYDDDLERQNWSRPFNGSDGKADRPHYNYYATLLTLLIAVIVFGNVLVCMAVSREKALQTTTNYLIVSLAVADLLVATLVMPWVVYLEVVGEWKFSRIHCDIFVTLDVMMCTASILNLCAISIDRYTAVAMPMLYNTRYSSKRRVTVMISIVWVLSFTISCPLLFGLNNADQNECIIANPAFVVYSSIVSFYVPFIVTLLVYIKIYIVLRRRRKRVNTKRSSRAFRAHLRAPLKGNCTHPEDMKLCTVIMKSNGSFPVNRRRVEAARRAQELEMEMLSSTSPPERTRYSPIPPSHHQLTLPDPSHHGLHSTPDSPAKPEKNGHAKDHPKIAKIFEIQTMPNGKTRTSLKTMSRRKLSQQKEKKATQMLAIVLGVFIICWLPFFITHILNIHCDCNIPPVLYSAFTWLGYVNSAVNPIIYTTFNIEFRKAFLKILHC

| affinity for the D2-receptor binding site [1] | affinity for the 5-HT1A receptor binding site [2] | selectivity at the 5-HT1A and 5-HT2 versus D2 receptor binding sites [2] | Structure (SMILES) | therapeutic index [3] | affinity to 5HT1a-receptors (5HT1a-receptors) |
| --- | --- | --- | --- | --- | --- |
| high affinity | high affinity | demonstrated selectivity | O=C(NCCN1CCN(c2ncccn2)CC1)[C@]12C[C@H]3C[C@@H](C[C@H](C3)C1)C2 [adatanserin] |  |  |
|  |  |  | Cl.O=c1c(CO)coc2cc(OCCCN3CCC(c4noc5cc(F)ccc45)CC3)ccc12 [abaperidone] | high therapeutic index | high affinity |
